Here are results for 1 compound from patent US7247617B2, “Sixteen-member macrolide antiinfective agents” (Kosan Biosciences Incorporated, priority 2004, dated 2007).

The test system of test [1] is a series of bacterial strains. In words: Biological activity against a series of bacterial strains (overall statements). The class given is cell-based. An excerpt: Results for S. pneumoniae, S. aureus, S. epidermidis, and E. faecalis are provided in Table B. Data on activity against H. influenzae for selected compounds are presented in Table C.
For another test, the system named is S. pneumoniae. Nature of the test: Biological activity against bacterial strains: S. pneumoniae. Also on record: Biological Activity, S. pneumoniae ATCC6301 / Biological Activity, S. pneumoniae ATCC700671 / Biological Activity, S. pneumoniae ATCC700676* / Biological Activity, S. pneumoniae ATCC700677* / Biological Activity, S. pneumoniae ATCC700905* / Biological Activity, S. pneumoniae ATCC700906* / Biological Activity, S. pneumoniae ATCC49619: unit not given here. The test is classed as cell-based, Streptococcus pneumoniae.

A further test has as its system S. aureus. Nature of the test: Biological activity against bacterial strains: S. aureus. The test is classed as cell-based, Staphylococcus aureus. Also on record: unit not given here.
For the next test, the system named is S. epidermidis. Nature of the test: Biological activity against bacterial strains: S. epidermidis. The test is classed as cell-based, Staphylococcus epidermidis. To be noted: strain ATCC12228.
The next test has as its system E. faecalis. Nature of the test: Biological activity against bacterial strains: E. faecalis. The class given is cell-based, Enterococcus faecalis. The conditions noted are these: strain ATCC51575.

For `CCC1OC(=O)CC(O)C(C)C(OC2OC(C)C(O)C(N(C)C)C2O)C(CCN2CC(C)CC(C)C2)CC(C)C(=O)C=CC(C)=CC1CO` (stereo not shown) [Compound 8, 20-Deoxy(3,5-dimethyl-1-piperidine)OMT, reference compound], the “antibiotic / antibacterial activity (in words)” value in test [1] was “no antibiotic activity”. For the same compound, the “Biological Activity, S. pneumoniae ATCC6301” value with S. pneumoniae (strain ATCC6301) turned out to be 0.39. The “Biological Activity, S. pneumoniae ATCC49619” value with S. pneumoniae (strain ATCC49619) was 0.78. Also, in the test on S. pneumoniae (strain ATCC700671), the “Biological Activity, S. pneumoniae ATCC700671” value is on record as 0.78. Also, in the test with S. pneumoniae (strain ATCC700676, macrolide resistant strain), the “Biological Activity, S. pneumoniae ATCC700676*” value was 1.56. Moreover, the “Biological Activity, S. pneumoniae ATCC700677*” value with S. pneumoniae (strain ATCC700677, macrolide resistant strain) is reported as more than 12.5. In addition, the “Biological Activity, S. pneumoniae ATCC700905*” value in the test on S. pneumoniae (strain ATCC700905, macrolide resistant strain) was 1.56. Besides, the “Biological Activity, S. pneumoniae ATCC700906*” value in the test with S. pneumoniae (strain ATCC700906, macrolide resistant strain) is reported as more than 12.5. Moreover, in the test on S. aureus (strain ATCC6538p), the “Biological Activity, S. aureus ATCC6538p” value is recorded as 0.39. Also, the “Biological Activity, S. aureus ATCC14154*” value in the test with S. aureus (strain ATCC14154, macrolide resistant strain) is 1.56. Further, the “Biological Activity, S. aureus ATCC29213” value in the test on S. aureus (strain ATCC29213) stood at 1.56. In addition, the “Biological Activity, S. aureus ATCC33591*” value in the test with S. aureus (strain ATCC33591, macrolide resistant strain) is recorded as more than 12.5. Moreover, the “Biological Activity, S. aureus ATCCBAA-39*” value with S. aureus (strain ATCCBAA-39, macrolide resistant strain) is listed as more than 12.5. Besides, the “Biological Activity, S. aureus ATCCBAA-44*” value with S. aureus (strain ATCCBAA-44, macrolide resistant strain) was more than 12.5. The “Biological Activity, S. epidermidis ATCC12228” value with S. epidermidis is given as 0.78. In the test on E. faecalis, the “Biological Activity, E. faecalis ATCC51575” value was more than 12.5.
